pIC50, pKi: −log10 of the molar value.
Tests used:
[1] = target: T1, Delta-type opioid receptor (Homo sapiens, UniProt P41143); assay: Antagonist activity assessed as inhibition of BW373U86-stimulated [35S]GTP-gamma-S binding to human delta opioid receptor expressed in CHO cells; assay type: functional, cell-based
[2] = target: T2, Mu-type opioid receptor (Homo sapiens, UniProt P35372); assay: Displacement of [3H]diprenorphine from human cloned mu opioid receptor expressed in CHO cells; assay type: cell-based
[3] = target: T1, Delta-type opioid receptor; assay: Displacement of [3H]diprenorphine from human cloned delta opioid receptor expressed in CHO cells; assay type: cell-based
[4] = target: T3, Kappa-type opioid receptor (Homo sapiens, UniProt P41145); assay: Displacement of [3H]diprenorphine from human cloned kappa opioid receptor expressed in CHO cells; assay type: cell-based
[5] = target: T3, Kappa-type opioid receptor; assay: Antagonist activity assessed as inhibition of U50488-stimulated [35S]GTP-gamma-S binding to human kappa opioid receptor expressed in CHO cells; assay type: functional, cell-based
[6] = target: T2, Mu-type opioid receptor; assay: Antagonist activity assessed as inhibition of loperamide-stimulated [35S]GTPgammaS binding to human mu opioid receptor expressed in CHO cells; assay type: functional, cell-based
[7] = target: T1, Delta-type opioid receptor; assay: Inhibition of [3H]diprenorphine binding to human cloned delta opioid receptor expressed in CHO cells at 10 uM; assay type: cell-based

T3 sequence (P41145 whole entry): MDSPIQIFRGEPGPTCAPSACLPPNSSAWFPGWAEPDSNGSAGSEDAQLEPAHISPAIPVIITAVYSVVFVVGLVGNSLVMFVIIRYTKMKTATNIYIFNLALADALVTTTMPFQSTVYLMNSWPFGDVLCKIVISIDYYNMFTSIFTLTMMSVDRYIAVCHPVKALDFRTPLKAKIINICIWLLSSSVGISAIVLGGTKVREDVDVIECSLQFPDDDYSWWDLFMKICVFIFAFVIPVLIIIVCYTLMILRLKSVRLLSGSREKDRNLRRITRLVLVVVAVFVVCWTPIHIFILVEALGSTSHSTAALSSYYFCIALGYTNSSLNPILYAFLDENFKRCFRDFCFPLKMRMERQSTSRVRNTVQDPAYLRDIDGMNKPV
T1 sequence (P41143 whole entry): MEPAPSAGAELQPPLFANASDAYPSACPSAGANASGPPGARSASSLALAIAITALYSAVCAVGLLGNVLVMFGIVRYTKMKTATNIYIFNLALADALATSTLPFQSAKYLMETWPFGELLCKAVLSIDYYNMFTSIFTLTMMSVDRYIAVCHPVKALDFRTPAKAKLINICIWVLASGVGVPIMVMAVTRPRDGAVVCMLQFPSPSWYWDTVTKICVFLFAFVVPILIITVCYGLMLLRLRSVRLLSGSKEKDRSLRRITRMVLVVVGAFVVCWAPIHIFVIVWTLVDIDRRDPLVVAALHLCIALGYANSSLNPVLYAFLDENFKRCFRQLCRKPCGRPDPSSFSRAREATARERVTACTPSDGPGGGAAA
T2 sequence (P35372 whole entry): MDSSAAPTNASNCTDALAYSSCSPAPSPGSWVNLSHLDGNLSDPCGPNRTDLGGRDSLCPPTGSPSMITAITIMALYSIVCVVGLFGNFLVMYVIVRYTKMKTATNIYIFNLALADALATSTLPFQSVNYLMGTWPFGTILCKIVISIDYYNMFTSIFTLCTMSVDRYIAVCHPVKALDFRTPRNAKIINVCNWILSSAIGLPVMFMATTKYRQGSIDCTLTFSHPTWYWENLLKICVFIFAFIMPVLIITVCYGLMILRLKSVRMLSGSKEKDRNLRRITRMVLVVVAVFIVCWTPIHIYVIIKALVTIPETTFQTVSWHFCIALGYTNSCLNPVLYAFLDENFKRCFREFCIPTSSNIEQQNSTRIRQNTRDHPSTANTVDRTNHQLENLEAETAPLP

Compound	pIC50 [1]	pKi [2]	pKi [3]	pKi [4]	pIC50 [5]	pIC50 [6]	inhibition [7] [%]
C[C@H]1CN2CCN(Cc3ccccc3Cl)C[C@H]2C[C@@]1(C)c1cccc(O)c1	6.72	9.33	7.24	7.80	8.00	8.74	–
C[C@H]1CN2C[C@H](c3ccccc3)N(C)C[C@H]2C[C@@]1(C)c1cccc(O)c1	6.24	–	5.64	7.89	8.62	–	–
C[C@H]1CN2CCN(Cc3ccoc3)C[C@H]2C[C@@]1(C)c1cccc(O)c1	–	7.92	6.13	6.92	–	8.21	–
C[C@H]1CN2CCN(CCc3ccccc3)C[C@H]2C[C@@]1(C)c1cccc(O)c1	6.51	–	–	–	7.70	8.70	–
C[C@H]1CN2CCN(Cc3ccc4ccccc4c3)C[C@H]2C[C@@]1(C)c1cccc(O)c1	–	7.05	–	6.01	–	7.13	49
C[C@H]1CN2CCN(Cc3ccccc3)C[C@H]2C[C@@]1(C)c1cccc(O)c1	6.82	8.92	–	7.37	8.08	9.14	–
C[C@H]1CN2C[C@H](c3ccccc3)CC[C@H]2C[C@@]1(C)c1cccc(O)c1	7.29	–	–	–	8.49	–	–
C[C@H]1CN2CCN(Cc3cccnc3)C[C@H]2C[C@@]1(C)c1cccc(O)c1	–	7.89	6.08	6.40	–	8.12	–
C[C@H]1CN2CCN(Cc3ccc(Cl)cc3)C[C@H]2C[C@@]1(C)c1cccc(O)c1	–	7.77	6.38	6.55	–	7.38	–
C[C@H]1CN2C[C@H](c3ccccc3)N(Cc3ccccc3)C[C@H]2C[C@@]1(C)c1cccc(O)c1	5.89	8.33	6.47	6.92	7.00	7.40	–
Cc1ccc(CN2CCN3C[C@H](C)[C@](C)(c4cccc(O)c4)C[C@@H]3C2)cc1	–	7.85	6.46	6.52	–	8.02	–
C[C@H]1CN2CCN(Cc3ccsc3)C[C@H]2C[C@@]1(C)c1cccc(O)c1	–	8.52	6.47	7.42	–	8.85	–
C[C@H]1CN2CCN(Cc3ccccn3)C[C@H]2C[C@@]1(C)c1cccc(O)c1	–	7.70	5.96	6.41	–	7.89	–
C[C@H]1CN2C[C@@H](Cc3ccccc3)NC[C@H]2C[C@@]1(C)c1cccc(O)c1	–	7.60	6.39	6.89	–	7.66	–
C[C@H]1CN2CCN(Cc3cccs3)C[C@H]2C[C@@]1(C)c1cccc(O)c1	6.47	8.85	6.59	7.43	8.18	9.20	–
C[C@H]1CN2CCN(C(=O)c3ccccc3)C[C@H]2C[C@@]1(C)c1cccc(O)c1	7.85	–	–	6.74	7.30	8.68	–
C[C@H]1CN2C[C@H](c3ccccc3)NC[C@H]2C[C@@]1(C)c1cccc(C(N)=O)c1	6.96	8.74	7.22	7.96	8.64	8.82	–
C[C@H]1CN2C[C@H](C3CCCCC3)NC[C@H]2C[C@@]1(C)c1cccc(O)c1	7.55	8.57	7.17	7.80	8.92	8.89	–
C[C@H]1CN2CCCN(Cc3ccccc3)C[C@H]2C[C@@]1(C)c1cccc(O)c1	–	6.80	5.54	6.27	–	7.82	–
Cc1cccc(CN2CCN3C[C@H](C)[C@](C)(c4cccc(O)c4)C[C@@H]3C2)c1	–	8.89	6.29	6.89	–	8.82	–

Compound	pIC50 [1]	pKi [2]	pKi [3]	pKi [4]	pIC50 [5]	pIC50 [6]	inhibition [7] [%]
C[C@H]1CN2CCN(Cc3ccccc3O)C[C@H]2C[C@@]1(C)c1cccc(O)c1	6.24	8.74	6.52	7.12	8.03	8.80	–
C[C@H]1CN2CCN(C(=O)Nc3ccccc3)C[C@H]2C[C@@]1(C)c1cccc(O)c1	–	7.51	6.27	6.38	–	7.80	–
C[C@H]1CN2CCN(CCCc3ccccc3)C[C@H]2C[C@@]1(C)c1cccc(O)c1	–	7.44	6.02	6.02	–	7.89	–
C[C@H]1CN2CCN(Cc3cccc(OCc4ccccc4)c3)C[C@H]2C[C@@]1(C)c1cccc(O)c1	–	7.89	–	7.48	–	7.66	43
C[C@H]1CN2CCN(Cc3cccc(Oc4ccccc4)c3)C[C@H]2C[C@@]1(C)c1cccc(O)c1	–	7.68	–	7.62	–	8.01	55
COC(=O)c1cccc(CN2CCN3C[C@H](C)[C@](C)(c4cccc(O)c4)C[C@@H]3C2)c1	–	7.96	–	6.85	–	8.16	43
C[C@H]1CN2C[C@H](c3ccccc3)N(Cc3ccccc3)C[C@H]2C[C@@]1(C)c1cccc(C(N)=O)c1	–	7.77	5.96	6.34	–	7.55	–
C[C@H]1CN2CCN(Cc3ccc(O)cc3)C[C@H]2C[C@@]1(C)c1cccc(O)c1	–	8.00	6.66	6.57	–	8.24	–
C[C@H]1CN2CCN(Cc3ccco3)C[C@H]2C[C@@]1(C)c1cccc(O)c1	–	8.13	5.82	6.37	–	8.14	–
C[C@H]1CN2CCN(Cc3cccc4ccccc34)C[C@H]2C[C@@]1(C)c1cccc(O)c1	–	8.46	–	6.64	–	7.80	60
C[C@H]1CN2CCN(Cc3cccc(O)c3)C[C@H]2C[C@@]1(C)c1cccc(O)c1	–	8.37	6.51	7.25	–	8.35	–
C[C@H]1CN2C[C@H](c3ccccc3)NC[C@H]2C[C@@]1(C)c1cccc(O)c1	7.01	–	–	–	8.49	8.96	–
CC(C)[C@H]1CN2C[C@H](C)[C@](C)(c3cccc(O)c3)C[C@@H]2CN1	–	6.42	–	7.24	–	7.18	15
C[C@H]1CN2CCN(Cc3cccc(Cl)c3)C[C@H]2C[C@@]1(C)c1cccc(O)c1	–	8.82	6.44	7.08	–	8.74	–
C[C@H]1CN2C[C@@H](c3ccccc3)NC[C@H]2C[C@@]1(C)c1cccc(O)c1	–	6.74	6.18	6.37	–	7.28	–
CC(=O)N1C[C@H]2C[C@@](C)(c3cccc(O)c3)[C@@H](C)CN2C[C@@H]1c1ccccc1	–	7.03	–	6.21	–	6.66	57
C[C@H]1CN2CCN(C(=O)Cc3ccccc3)C[C@H]2C[C@@]1(C)c1cccc(O)c1	–	7.77	7.15	6.27	–	8.17	–
C[C@H]1CN2CCN(c3ccccc3)C[C@H]2C[C@@]1(C)c1cccc(O)c1	–	6.66	6.02	5.43	–	7.27	–
C[C@H]1CN2C[C@H](Cc3ccccc3)NC[C@H]2C[C@@]1(C)c1cccc(O)c1	7.48	–	–	7.07	7.80	8.55	–

Reference: ChEMBL document CHEMBL1137297, “Synthesis and pharmacological evaluation of novel octahydro-1H-pyrido[1,2-a]pyrazine as mu-opioid receptor antagonists” (J Med Chem, 2006)
